Test results from the kinase profiling compilation of Christmann-Franck et al. (2016).

Assays:
Assay in all cases: KINOMEscan competition binding
Settings in all cases: compound 10.0 µM
MARK2 (human) = MARK2 (human) (UniProt Q7KZI7)
MELK (human) = MELK (human) (UniProt Q14680)
[1] = tested on: FGFR3 (human), P22607 [G697C]
DSTYK (human) = DSTYK (human) (UniProt Q6XUX3)
DDR1 (human) = DDR1 (human) (UniProt Q08345)
FGFR2 (human) = FGFR2 (human) (UniProt P21802)
[2] = tested on: FLT3 (human), P36888 [N841I]
SIK2 (human) = SIK2 (human) (UniProt Q9H0K1)
SRPK1 (human) = SRPK1 (human) (UniProt Q96SB4)
[3] = tested on: KIT (human), P10721 [V559D/T670I]
BLK (human) = BLK (human) (UniProt P51451)
MAP4K3 (human) = MAP4K3 (human) (UniProt Q8IVH8)
WEE1 (human) = WEE1 (human) (UniProt P30291)
MAPK11 (human) = MAPK11 (human) (UniProt Q15759)
MAP3K7 (human) = MAP3K7 (human) (UniProt O43318)
BMX (human) = BMX (human) (UniProt P51813)
AXL (human) = AXL (human) (UniProt P30530)
ROCK2 (human) = ROCK2 (human) (UniProt O75116)
TXK (human) = TXK (human) (UniProt P42681)
CaMK1 (human) = CaMK1 (human) (UniProt Q14012)
TAOK3 (human) = TAOK3 (human) (UniProt Q9H2K8)
STK32A (human) = STK32A (human) (UniProt Q8WU08)
TYRO3 (human) = TYRO3 (human) (UniProt Q06418)
ADCK3 (human) = ADCK3 (human) (UniProt Q8NI60)
TESK1 (human) = TESK1 (human) (UniProt Q15569)
MAP2K2 (human) = MAP2K2 (human) (UniProt P36507)
[4] = target: TYK2 JH1 catalytic (human) (UniProt P29597)
PDGFRB (human) = PDGFRB (human) (UniProt P09619)
STK24 (human) = STK24 (human) (UniProt Q9Y6E0)
PIM3 (human) = PIM3 (human) (UniProt Q86V86)
EPHA1 (human) = EPHA1 (human) (UniProt P21709)
STK35 (human) = STK35 (human) (UniProt Q8TDR2)
MAP4K1 (human) = MAP4K1 (human) (UniProt Q92918)
PIM2 (human) = PIM2 (human) (UniProt Q9P1W9)
LIMK2 (human) = LIMK2 (human) (UniProt P53671)
[5] = tested on: KIT (human), P10721 [D816H]
MAP2K4 (human) = MAP2K4 (human) (UniProt P45985)
ERBB4 (human) = ERBB4 (human) (UniProt Q15303)
ACVR1B (human) = ACVR1B (human) (UniProt P36896)
[6] = tested on: RET (human), P07949 [V804L]
[7] = tested on: KIT (human), P10721 [V559D/V654A]

AXL (human), sequence (P30530 whole entry, looked up): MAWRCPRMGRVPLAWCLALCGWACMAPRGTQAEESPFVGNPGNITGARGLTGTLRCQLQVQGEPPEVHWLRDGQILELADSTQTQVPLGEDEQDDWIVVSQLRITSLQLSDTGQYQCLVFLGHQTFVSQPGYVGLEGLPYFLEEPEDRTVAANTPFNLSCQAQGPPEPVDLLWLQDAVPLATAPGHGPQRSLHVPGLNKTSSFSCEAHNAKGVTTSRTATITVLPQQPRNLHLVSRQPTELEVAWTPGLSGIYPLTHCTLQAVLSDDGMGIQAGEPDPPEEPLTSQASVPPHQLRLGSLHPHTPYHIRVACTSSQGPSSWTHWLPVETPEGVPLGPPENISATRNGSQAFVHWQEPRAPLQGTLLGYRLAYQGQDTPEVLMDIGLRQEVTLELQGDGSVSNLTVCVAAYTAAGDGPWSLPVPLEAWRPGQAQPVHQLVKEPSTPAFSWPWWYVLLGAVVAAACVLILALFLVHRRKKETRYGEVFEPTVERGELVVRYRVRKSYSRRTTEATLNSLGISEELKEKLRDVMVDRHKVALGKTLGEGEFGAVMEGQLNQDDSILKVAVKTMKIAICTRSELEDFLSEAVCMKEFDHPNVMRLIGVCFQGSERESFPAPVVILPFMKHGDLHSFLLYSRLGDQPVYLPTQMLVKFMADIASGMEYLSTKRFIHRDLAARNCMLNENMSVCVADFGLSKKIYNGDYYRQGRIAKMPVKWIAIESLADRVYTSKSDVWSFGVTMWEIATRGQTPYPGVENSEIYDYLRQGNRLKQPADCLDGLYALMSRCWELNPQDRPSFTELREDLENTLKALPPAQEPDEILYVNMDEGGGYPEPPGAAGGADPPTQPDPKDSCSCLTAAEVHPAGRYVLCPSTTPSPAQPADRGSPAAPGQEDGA
MAP2K4 (human), sequence (P45985 whole entry, looked up): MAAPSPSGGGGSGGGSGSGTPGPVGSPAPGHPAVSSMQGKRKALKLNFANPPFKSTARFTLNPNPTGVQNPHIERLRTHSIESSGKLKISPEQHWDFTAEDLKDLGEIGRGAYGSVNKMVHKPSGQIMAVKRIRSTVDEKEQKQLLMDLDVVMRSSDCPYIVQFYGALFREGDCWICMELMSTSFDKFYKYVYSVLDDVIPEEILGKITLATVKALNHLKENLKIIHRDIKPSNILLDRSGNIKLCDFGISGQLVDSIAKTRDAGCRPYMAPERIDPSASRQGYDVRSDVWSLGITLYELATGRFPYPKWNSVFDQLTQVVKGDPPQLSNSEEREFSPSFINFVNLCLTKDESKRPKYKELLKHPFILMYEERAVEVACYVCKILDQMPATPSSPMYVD
ERBB4 (human), sequence (Q15303 whole entry, looked up): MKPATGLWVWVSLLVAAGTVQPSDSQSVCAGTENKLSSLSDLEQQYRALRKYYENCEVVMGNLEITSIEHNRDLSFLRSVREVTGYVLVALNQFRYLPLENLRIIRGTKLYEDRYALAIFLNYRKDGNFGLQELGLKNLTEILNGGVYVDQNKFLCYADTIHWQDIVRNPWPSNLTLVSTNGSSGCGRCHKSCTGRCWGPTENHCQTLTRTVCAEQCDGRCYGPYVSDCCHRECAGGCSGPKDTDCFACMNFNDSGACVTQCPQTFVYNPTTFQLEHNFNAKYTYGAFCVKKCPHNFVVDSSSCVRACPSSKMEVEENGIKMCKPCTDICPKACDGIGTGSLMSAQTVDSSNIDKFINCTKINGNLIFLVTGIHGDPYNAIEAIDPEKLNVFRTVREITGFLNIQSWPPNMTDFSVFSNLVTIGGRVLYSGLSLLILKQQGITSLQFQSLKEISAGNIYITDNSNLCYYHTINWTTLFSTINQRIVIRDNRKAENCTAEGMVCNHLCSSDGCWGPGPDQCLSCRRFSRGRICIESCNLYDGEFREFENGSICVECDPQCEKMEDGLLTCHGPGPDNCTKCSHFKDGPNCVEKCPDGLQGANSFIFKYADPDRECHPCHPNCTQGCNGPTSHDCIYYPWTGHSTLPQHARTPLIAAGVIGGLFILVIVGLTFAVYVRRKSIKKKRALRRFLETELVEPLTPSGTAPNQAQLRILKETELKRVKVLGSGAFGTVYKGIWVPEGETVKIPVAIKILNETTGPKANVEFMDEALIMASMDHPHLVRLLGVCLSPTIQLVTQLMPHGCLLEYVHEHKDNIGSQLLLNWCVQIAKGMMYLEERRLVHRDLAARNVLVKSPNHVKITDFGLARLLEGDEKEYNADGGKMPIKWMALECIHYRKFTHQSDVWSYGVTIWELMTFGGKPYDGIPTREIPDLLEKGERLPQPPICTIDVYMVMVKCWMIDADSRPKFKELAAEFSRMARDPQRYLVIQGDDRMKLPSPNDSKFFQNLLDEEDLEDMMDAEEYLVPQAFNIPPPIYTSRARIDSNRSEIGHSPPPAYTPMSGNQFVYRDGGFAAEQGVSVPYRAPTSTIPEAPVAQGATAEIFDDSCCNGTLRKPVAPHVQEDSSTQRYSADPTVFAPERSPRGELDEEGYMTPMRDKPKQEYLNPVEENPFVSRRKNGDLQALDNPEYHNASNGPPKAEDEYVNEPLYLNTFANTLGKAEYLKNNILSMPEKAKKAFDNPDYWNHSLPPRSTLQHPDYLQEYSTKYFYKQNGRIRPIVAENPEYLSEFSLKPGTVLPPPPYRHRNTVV
STK24 (human), sequence (Q9Y6E0 whole entry, looked up): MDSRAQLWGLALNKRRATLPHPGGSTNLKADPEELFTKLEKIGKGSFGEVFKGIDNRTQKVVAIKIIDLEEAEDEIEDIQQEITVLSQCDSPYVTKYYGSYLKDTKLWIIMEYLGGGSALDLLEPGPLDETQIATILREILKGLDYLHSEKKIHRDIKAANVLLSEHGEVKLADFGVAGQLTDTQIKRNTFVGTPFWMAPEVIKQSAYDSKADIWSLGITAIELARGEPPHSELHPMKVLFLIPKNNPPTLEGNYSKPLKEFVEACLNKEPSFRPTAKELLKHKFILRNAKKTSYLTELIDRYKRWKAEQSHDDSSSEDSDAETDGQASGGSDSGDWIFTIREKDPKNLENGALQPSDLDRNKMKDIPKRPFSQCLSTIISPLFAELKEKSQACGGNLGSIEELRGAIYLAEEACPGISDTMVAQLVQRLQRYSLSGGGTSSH
EPHA1 (human), sequence (P21709 whole entry, looked up): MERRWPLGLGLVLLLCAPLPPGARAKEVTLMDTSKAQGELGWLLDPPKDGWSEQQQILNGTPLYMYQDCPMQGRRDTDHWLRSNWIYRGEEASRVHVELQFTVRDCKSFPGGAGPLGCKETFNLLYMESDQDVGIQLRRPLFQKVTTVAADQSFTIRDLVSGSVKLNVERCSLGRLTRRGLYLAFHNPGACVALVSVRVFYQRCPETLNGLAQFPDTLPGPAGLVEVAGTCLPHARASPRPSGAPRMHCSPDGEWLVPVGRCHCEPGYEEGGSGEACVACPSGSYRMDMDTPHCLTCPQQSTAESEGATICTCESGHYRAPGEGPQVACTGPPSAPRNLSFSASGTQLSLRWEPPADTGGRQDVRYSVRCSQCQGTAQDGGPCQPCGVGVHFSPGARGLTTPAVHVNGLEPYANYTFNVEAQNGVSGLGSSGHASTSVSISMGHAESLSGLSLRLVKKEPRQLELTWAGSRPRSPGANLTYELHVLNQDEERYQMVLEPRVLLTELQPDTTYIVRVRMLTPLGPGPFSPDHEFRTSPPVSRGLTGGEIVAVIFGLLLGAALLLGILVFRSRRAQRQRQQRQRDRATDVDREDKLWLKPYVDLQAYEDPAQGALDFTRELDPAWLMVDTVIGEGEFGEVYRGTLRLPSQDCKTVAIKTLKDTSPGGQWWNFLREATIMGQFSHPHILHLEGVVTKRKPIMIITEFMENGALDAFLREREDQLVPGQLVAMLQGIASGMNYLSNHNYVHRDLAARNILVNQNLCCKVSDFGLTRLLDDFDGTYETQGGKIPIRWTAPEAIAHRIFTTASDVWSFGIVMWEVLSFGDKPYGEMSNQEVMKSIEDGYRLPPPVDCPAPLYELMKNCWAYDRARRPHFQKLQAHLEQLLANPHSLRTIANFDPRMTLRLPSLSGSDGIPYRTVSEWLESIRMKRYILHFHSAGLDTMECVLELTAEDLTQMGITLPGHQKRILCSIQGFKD
FGFR2 (human), sequence (P21802 whole entry, looked up): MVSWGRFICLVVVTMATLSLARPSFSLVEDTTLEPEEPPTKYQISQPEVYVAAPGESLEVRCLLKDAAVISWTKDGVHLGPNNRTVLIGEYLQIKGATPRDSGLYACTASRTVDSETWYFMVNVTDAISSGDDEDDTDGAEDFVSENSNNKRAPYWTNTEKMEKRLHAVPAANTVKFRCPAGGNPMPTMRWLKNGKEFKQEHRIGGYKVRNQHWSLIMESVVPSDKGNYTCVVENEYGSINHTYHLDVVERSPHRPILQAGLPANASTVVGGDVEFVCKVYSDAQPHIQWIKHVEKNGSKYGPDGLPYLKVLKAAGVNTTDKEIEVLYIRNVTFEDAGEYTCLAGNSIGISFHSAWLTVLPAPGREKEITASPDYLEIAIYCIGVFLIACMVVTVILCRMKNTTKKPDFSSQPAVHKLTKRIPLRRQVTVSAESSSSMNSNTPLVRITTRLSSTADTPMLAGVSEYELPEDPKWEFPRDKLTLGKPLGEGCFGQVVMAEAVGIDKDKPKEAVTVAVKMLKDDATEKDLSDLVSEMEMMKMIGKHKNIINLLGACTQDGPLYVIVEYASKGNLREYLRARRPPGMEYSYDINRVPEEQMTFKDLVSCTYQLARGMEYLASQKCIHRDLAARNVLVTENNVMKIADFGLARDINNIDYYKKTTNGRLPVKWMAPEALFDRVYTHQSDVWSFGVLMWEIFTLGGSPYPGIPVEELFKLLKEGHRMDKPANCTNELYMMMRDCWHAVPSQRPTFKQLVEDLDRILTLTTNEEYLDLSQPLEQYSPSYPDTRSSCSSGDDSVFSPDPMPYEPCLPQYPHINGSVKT

COc1cc(C(=O)N2CCC(N3CCN(C)CC3)CC2)ccc1Nc1ncc2c(n1)N(C)c1ccccc1C(=O)N2C showed a kinase still bound, per cent of control (MARK2 (human)) of 100%, a kinase still bound, per cent of control (MELK (human)) of 100% and a kinase still bound, per cent of control [1] of 85%. For the same compound, the kinase still bound, per cent of control (DSTYK (human)) was 16%, the kinase still bound, per cent of control (DDR1 (human)) was 100% and the kinase still bound, per cent of control (FGFR2 (human)) was 95%. The kinase still bound, per cent of control [2] was 73%, the kinase still bound, per cent of control (SIK2 (human)) was 98% and the kinase still bound, per cent of control (SRPK1 (human)) was 94%. It also gave a kinase still bound, per cent of control [3] of 81%, a kinase still bound, per cent of control (BLK (human)) of 97% and a kinase still bound, per cent of control (MAP4K3 (human)) of 71%. The kinase still bound, per cent of control (WEE1 (human)) was 100%, the kinase still bound, per cent of control (MAPK11 (human)) was 60% and the kinase still bound, per cent of control (MAP3K7 (human)) was 98%. It also gave a kinase still bound, per cent of control (BMX (human)) of 87%, a kinase still bound, per cent of control (AXL (human)) of 100% and a kinase still bound, per cent of control (ROCK2 (human)) of 87%. For the same compound, the kinase still bound, per cent of control (TXK (human)) was 91%, the kinase still bound, per cent of control (CaMK1 (human)) was 55% and the kinase still bound, per cent of control (TAOK3 (human)) was 24%. It also gave a kinase still bound, per cent of control (STK32A (human)) of 100%, a kinase still bound, per cent of control (TYRO3 (human)) of 100% and a kinase still bound, per cent of control (ADCK3 (human)) of 71%. The kinase still bound, per cent of control (TESK1 (human)) was 82%, the kinase still bound, per cent of control (MAP2K2 (human)) was 99% and the kinase still bound, per cent of control [4] was 52%. For the same compound, the kinase still bound, per cent of control (PDGFRB (human)) was 100%, the kinase still bound, per cent of control (STK24 (human)) was 87% and the kinase still bound, per cent of control (PIM3 (human)) was 88%. The kinase still bound, per cent of control (EPHA1 (human)) was 100%, the kinase still bound, per cent of control (STK35 (human)) was 100% and the kinase still bound, per cent of control (MAP4K1 (human)) was 100%. The kinase still bound, per cent of control (PIM2 (human)) was 100%, the kinase still bound, per cent of control (LIMK2 (human)) was 100% and the kinase still bound, per cent of control [5] was 100%. It also gave a kinase still bound, per cent of control (MAP2K4 (human)) of 100%, a kinase still bound, per cent of control (ERBB4 (human)) of 100% and a kinase still bound, per cent of control (ACVR1B (human)) of 100%. It also gave a kinase still bound, per cent of control [6] of 89% and a kinase still bound, per cent of control [7] of 100%.
